Reference: the supplement of paper PMC11451515

System: SEM cells
Assay: cell viability relative to DMSO control; higher = less cytotoxic
Conditions: 48 h
In short: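 NOMO1 or SEM cells were plated at 500 cells/well and P12-Ichikawa cells at 1000 cells/well in 1536-well plates (5 μl), after each leukemia line had been adapted for at least four passages in each medium. Pin dosing delivered library compounds in DMSO at 11 threefold concentrations, 47 μM to 0.79 nM. CellTiter-Glo One luminescence was read after 48 h at 37°C. Viability is reported as a per-plate percentage of DMSO wells, with cell-free wells as background.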

[1] = HPLM + 10% dialyzed FBS, 0.000781 µM
[2] = HPLM + 10% dialyzed FBS, 0.00234 µM
[3] = HPLM + 10% dialyzed FBS, 0.00702 µM
[4] = HPLM + 10% dialyzed FBS, 0.0211 µM
[5] = HPLM + 10% dialyzed FBS, 0.0632 µM
[6] = HPLM + 10% dialyzed FBS, 0.19 µM
[7] = HPLM + 10% dialyzed FBS, 0.569 µM
[8] = HPLM + 10% dialyzed FBS, 1.71 µM
[9] = HPLM + 10% dialyzed FBS, 5.12 µM
[10] = HPLM + 10% dialyzed FBS, 15.4 µM
[11] = HPLM + 10% dialyzed FBS, 46.1 µM
[12] = RPMI 5 mM glucose + 10% FBS, 0.000781 µM
[13] = RPMI 5 mM glucose + 10% FBS, 0.00234 µM
[14] = RPMI 5 mM glucose + 10% FBS, 0.00702 µM
[15] = RPMI 5 mM glucose + 10% FBS, 0.0211 µM
[16] = RPMI 5 mM glucose + 10% FBS, 0.0632 µM
[17] = RPMI 5 mM glucose + 10% FBS, 0.19 µM
[18] = RPMI 5 mM glucose + 10% FBS, 0.569 µM
[19] = RPMI 5 mM glucose + 10% FBS, 1.71 µM
[20] = RPMI 5 mM glucose + 10% FBS, 5.12 µM
[21] = RPMI 5 mM glucose + 10% FBS, 15.4 µM
[22] = RPMI 5 mM glucose + 10% FBS, 46.1 µM
[23] = RPMI 5 mM glucose + 10% dialyzed FBS, 0.000781 µM
[24] = RPMI 5 mM glucose + 10% dialyzed FBS, 0.00234 µM
[25] = RPMI 5 mM glucose + 10% dialyzed FBS, 0.00702 µM
[26] = RPMI 5 mM glucose + 10% dialyzed FBS, 0.0211 µM
[27] = RPMI 5 mM glucose + 10% dialyzed FBS, 0.0632 µM
[28] = RPMI 5 mM glucose + 10% dialyzed FBS, 0.19 µM
[29] = RPMI 5 mM glucose + 10% dialyzed FBS, 0.569 µM
[30] = RPMI 5 mM glucose + 10% dialyzed FBS, 1.71 µM
[31] = RPMI 5 mM glucose + 10% dialyzed FBS, 5.12 µM
[32] = RPMI 5 mM glucose + 10% dialyzed FBS, 15.4 µM
[33] = RPMI 5 mM glucose + 10% dialyzed FBS, 46.1 µM

SMILES | cell viability [1] [%] | cell viability [2] [%] | cell viability [3] [%] | cell viability [4] [%] | cell viability [5] [%] | cell viability [6] [%] | cell viability [7] [%] | cell viability [8] [%] | cell viability [9] [%] | cell viability [10] [%] | cell viability [11] [%] | cell viability [12] [%] | cell viability [13] [%] | cell viability [14] [%] | cell viability [15] [%] | cell viability [16] [%] | cell viability [17] [%] | cell viability [18] [%] | cell viability [19] [%] | cell viability [20] [%] | cell viability [21] [%] | cell viability [22] [%] | cell viability [23] [%] | cell viability [24] [%] | cell viability [25] [%] | cell viability [26] [%] | cell viability [27] [%] | cell viability [28] [%] | cell viability [29] [%] | cell viability [30] [%] | cell viability [31] [%] | cell viability [32] [%] | cell viability [33] [%]
CN(CC(=O)N(Cc1ccc(C2CCCCC2)cc1)c1ccc(C(=O)O)c(O)c1)[S+](=O)([O-])c1c(F)c(F)c(F)c(F)c1F | 83.5 | 94.7 | 104 | 95.8 | 103 | 93.7 | 92.7 | 97.7 | 84.8 | 86.5 | 31.1 | 80.8 | 104 | 90 | 93.1 | 88.9 | 101 | 103 | 97.8 | 77.4 | 54.8 | 6.03 | 87 | 91.1 | 93.1 | 89.2 | 103 | 101 | 84.5 | 91.3 | 80.3 | 66.6 | 19.9
O=C(NOCC1CC1)c1ccc(F)c(F)c1Nc1ccc(I)cc1Cl | 91 | 87.8 | 109 | 113 | 99.7 | 99.5 | 113 | 116 | 95.8 | 75.5 | 77.1 | 95.8 | 93.7 | 112 | 108 | 94.7 | 93.8 | 106 | 94.2 | 85.5 | 67.3 | 53.1 | 101 | 89.9 | 115 | 104 | 102 | 78.2 | 103 | 89.6 | 84.8 | 59.7 | 59.7
O=c1oc2cc(O)ccc2s1 | 85.6 | 110 | 98.9 | 95.4 | 109 | 105 | 120 | 93.9 | 111 | 105 | 37.9 | 91.8 | 106 | 82.9 | 110 | 103 | 98.6 | 112 | 118 | 109 | 77.6 | 24.8 | 97.4 | 119 | 99.3 | 109 | 121 | 88.3 | 112 | 106 | 129 | 90.3 | 37.6
Clc1ccc(C(c2ccc(Cl)cc2)[n+]2ccn(CC(OCc3ccc(Cl)cc3Cl)c3ccc(Cl)cc3Cl)c2)cc1 (stereo not given) | 108 | 121 | 107 | 105 | 117 | 112 | 108 | 117 | 117 | 61 | 5.22 | 109 | 111 | 117 | 120 | 132 | 127 | 124 | 111 | 106 | 37.7 | 1.63 | 112 | 117 | 118 | 109 | 108 | 123 | 124 | 115 | 125 | 83.3 | 3.06
Nc1nccc(-c2ccc3noc(-c4ccc(Cl)cc4)c3c2)n1 | – | – | – | – | – | – | – | – | – | – | – | 98.5 | 103 | 99.3 | 102 | 93.9 | 116 | 112 | 104 | 89.1 | 88.9 | 92.7 | 118 | 119 | 119 | 119 | 104 | 115 | 126 | 119 | 108 | 114 | 108
CCC(=O)NC[C@H](Cc1ccc(OCCc2nc(-c3ccccc3)oc2C)cc1)N/C(C)=C\C(=O)c1ccc(C(F)(F)F)cc1 | 68.8 | 106 | 104 | 88.3 | 91 | 109 | 4.25 | 81.6 | 82.6 | 50.4 | 49.3 | 83.1 | 97.2 | 120 | 105 | 98 | 120 | 4.86 | 83.4 | 99.4 | 51.9 | 67.2 | 60.2 | 97.7 | 113 | 118 | 120 | 109 | 5.19 | 93 | 94.5 | 43.9 | 65.5
COc1cc2c(cc1O)CCC1C2CC[C@@]2(C)C1CC[C@@H]2O (stereo not given in full) | 88.7 | 114 | 98.4 | 25.9 | 108 | 113 | 95.8 | 73.2 | 40.7 | 31.4 | 26.2 | 120 | 108 | 129 | 22 | 124 | 125 | 107 | 84.2 | 49.1 | 23.5 | 21.7 | 116 | 118 | 126 | 24.6 | 118 | 123 | 108 | 88.7 | 40.2 | 26.5 | 28.2
Cn1cnc(N)c2ncnc1-2 | 80.5 | 96.4 | 111 | 103 | 109 | 88.9 | 112 | 80.3 | 32 | 5 | 4.54 | 90.9 | 99 | 92.9 | 87.1 | 87.8 | 99.5 | 87.2 | 63.6 | 14.7 | 4.31 | 3.65 | 108 | 109 | 115 | 84.9 | 112 | 98.6 | 118 | 82.6 | 24.8 | 5.27 | 4.09
CCCCN1CCC(CNC(=O)c2c3n(c4ccccc24)CCCO3)CC1 | 81.3 | 85.3 | 92.1 | 90.9 | 94.5 | 57.7 | 117 | 107 | 108 | 89.7 | 68.4 | 84.9 | 102 | 112 | 91.3 | 117 | 75.3 | 105 | 118 | 113 | 93.5 | 80.6 | 105 | 101 | 110 | 94.4 | 111 | 67.5 | 103 | 103 | 115 | 79 | 79.8
Cc1nc(-c2ccc(-c3ccc(C(=O)N4CCc5cc6c(cc54)C4(CCN(C)CC4)CO6)cc3)c(C)c2)no1 | 88.4 | 104 | 108 | 106 | 119 | 97.4 | 114 | 108 | 117 | 136 | 123 | 114 | 102 | 107 | 105 | 99.3 | 112 | 114 | 101 | 117 | 107 | 113 | 108 | 99.7 | 103 | 95.4 | 92.5 | 96 | 104 | 96.5 | 92.8 | 100 | 103
C=C1CCC2[C@](C)(CO)C(O)CC[C@]2(C)C1C/C=C1/C(=O)OCC1O (stereo not given in full) | 122 | 122 | 112 | 126 | 116 | 111 | 109 | 105 | 103 | 117 | 93.3 | 125 | 115 | 118 | 97.8 | 108 | 99.2 | 88.3 | 87.1 | 81.5 | 84.8 | 85.6 | 129 | 120 | 121 | 115 | 113 | 116 | 109 | 106 | 109 | 96.3 | 92.3
CC(O)(C[S+](=O)([O-])c1ccc(F)cc1)C(=O)Nc1ccc(C#N)c(C(F)(F)F)c1 (stereo not given) | 86.8 | 96.4 | 91 | 80.3 | 85.2 | 96.2 | 96.2 | 93.5 | 97.4 | 83.2 | 73.9 | 84.9 | 83.6 | 98 | 87 | 88.7 | 103 | 96.3 | 96.5 | 91.8 | 76.8 | 62.9 | 87.2 | 84.4 | 98.1 | 94.8 | 80 | 102 | 86.8 | 102 | 99.1 | 72.3 | 55
OC(=O)CNC(=O)\C1=C(/O)C2=CC=CC=C2N(CC3=CC=CC=C3)C1=O | 106 | 104 | 105 | 125 | 54 | 99.2 | 116 | 104 | 111 | 102 | 106 | 98.1 | 103 | 117 | 112 | 17.9 | 104 | 107 | 94.7 | 106 | 97.4 | 88.9 | 121 | 116 | 111 | 106 | 89.3 | 117 | 119 | 114 | 105 | 86.3 | 109
C[C@H](NC(=O)[C@@H](O)c1cc(F)cc(F)c1)C(=O)N[C@@H]1C(=O)N(C)c2ccccc2-c2ccccc21 | – | – | – | – | – | – | – | – | – | – | – | 120 | 121 | 120 | 135 | 122 | 128 | 107 | 115 | 111 | 121 | 85.9 | – | – | – | – | – | – | – | – | – | – | –
Nc1ncnc2nc(-c3ccc(N4CCOCC4)nc3)cc(-c3cccc(Br)c3)c12 | 109 | 107 | 115 | 118 | 114 | 122 | 117 | 115 | 109 | 110 | 96.5 | 93.2 | 124 | 77.9 | 111 | 114 | 110 | 104 | 105 | 114 | 106 | 83 | 125 | 124 | 102 | 133 | 125 | 127 | 132 | 126 | 133 | 123 | 93
COc1cc(C[C@@H](CO)[C@H](CO)Cc2ccc(O)c(OC)c2)ccc1O | 84 | 89.3 | 92.1 | 95 | 104 | 109 | 114 | 107 | 111 | 89.1 | 105 | 91.8 | 85.1 | 88.4 | 81.8 | 91.7 | 105 | 106 | 104 | 105 | 110 | 93.3 | 85.7 | 92.7 | 98.1 | 99.7 | 113 | 102 | 105 | 112 | 108 | 108 | 110
